# US11512056B2 (Anhui New Star Pharmaceutical Development Co., Ltd, priority 2018, dated 2022)
# Values joined by “and” are separate entries in the source; they are usually repeats but may differ in a detail not shown here. Identical values can stand only once.
# Columns and labels:
# platelets (rabbit blood) = assay: Inhibition of platelet aggregation in vitro (rabbit blood), ADP-induced, turbidimetric; format: cell-based, New Zealand white rabbits; conditions: Oryctolagus cuniculus, rabbit PRP, ADP final concentration 10 μM
# Description: Blood was collected from New Zealand white rabbits (body weight 1-1.5 kg). After the animal was anesthetized with 10% chloral hydrate, the animal was placed supinely on the rabbit board, precordial hair was cut off, and the skin was disinfected with iodine and alcohol. Touch with left hand the 3rd to 4th intercostal space on the left edge of the sternum. Chose the most obvious place for the puncture point. Held the syringe in right hand and insert the needle into the chest cavity. Inserted the needle into the heart and then draw out the blood when feel the heart beating through the needle. […] assay system with a total volume of 300 μL, that is, 280 μL of diluted PRP was taken and placed in a turbidimetric tube, and was incubated with 10 μL of drug or solvent control at 37° C. for 5 minutes, and then 10 μL of different inducers such ADP (final concentration 10 μM) were added to determine the maximum platelet aggregation rate within 5 minutes. Repeation was taken at least three times […].
# Platelet-rich plasma (PRP) was obtained by centrifuging blood at 1200 rpm for 10 minutes, and platelet aggregation was measured as described above. […] The platelet density in PRP is counted with a hemocytometer and diluted with platelet-poor plasma (PPP). […]
# arterial thrombosis = assay: SD male rat arteriovenous short circuit thrombosis model (A-V shunt); format: in vivo, male SD rats
# Description: Cut the surgical wire with a length of 6 cm, weigh and recorded it on an analytical balance (about 2 mg dry weight), and placed it in a thick polyethylene tube with a length of 6 cm. Inserted a thin tube at each end of the thick tube spare. Male SD rats were intragastrically administered for 4 hours, anesthetized with pentobarbital 60 mg/kg, separated the common carotid artery and common jugular vein, connected the arteries and veins with the above polyethylene tube, opened the blood flow for 15 minutes, removed the surgical line and weighed (WW).
# human platelets [1] = assay: ADP-induced aggregation of human platelets (PRP, turbidimetric); format: cell-based; conditions: for inhibition at 0.005 µM: concentration 0.005 μM; for inhibition at 0.01 µM: concentration 0.01 μM; for inhibition at 5 µM: concentration 5 μM; for inhibition at 10 µM: concentration 10 μM; for IC50: read-out: IC50 of compound on ADP-induced platelet aggregation rate
# Description: Volunteers' whole blood was drawn from venous blood with 1:6 dextro-citrate ACD (85 mmol/L sodium citrate, 71.38 mmol/L citrate, 27.78 mmol/L glucose) for anticoagulation, and centrifuged at 300 g at room temperature for 10 minutes, platelet rich plasma (PRP) was separated.
# (§1) The turbidimetric platelet aggregation test was performed on the Chrono-Log Company's dual-channel optical platelet aggregation instrument. The speed of the icon recorder was set to 1 cm/min, and the aggregation curve was recorded. First, the platelet aggregator was preheated to 37° C., 400 μL platelet suspension and stir bar were added to the turbidity tube, use PPP as a reference, and traced the baseline under constant magnetic stirring at 37° C. After the baseline was stable, with experiment plan, different concentrations of antagonists or other reagents were added to treat platelets for 2 minutes, and then the inducer ADP was added to observe and record changes in the aggregation curve.
# human platelets [2] = assay: Thrombin-induced human platelet aggregation (PRP, turbidimetric); format: cell-based; conditions: for inhibition at 0.003 µM: concentration 0.003 μM; for IC50: read-out: IC50 on thrombin-induced platelet aggregation rate
# Description: Volunteers' whole blood was drawn from venous blood with 1:6 D-citrate ACD (85 mmol/L sodium citrate, 71.38 mmol/L citrate, 27.78 mmol/L glucose) for anticoagulation, and centrifuged at 300 g at room temperature for 10 minutes, platelet rich plasma (PRP) was separated.
# as §1, with “C., and” for “C.,”, “tube,” for “tube, use”, “PPP was used” for “PPP”, “baseline is” for “baseline was”, “with the” for “with”
# human platelets [3] = assay: Collagen-induced aggregation of human platelets (PRP, turbidimetric); format: cell-based
# Description: Volunteers' whole blood was drawn from venous blood with 1:6 dextro-citrate ACD (85 mmol/L sodium citrate, 71.38 mmol/L citrate, 27.78 mmol/L glucose) for anticoagulation, and centrifuged at 300 g at room temperature for 10 Minutes, separate platelet rich plasma (PRP).
# The turbidimetric platelet aggregation test was performed on the Chrono-Log Company's dual-channel optical platelet aggregation instrument. The speed of the icon recorder was set to 1 cm/min, and the aggregation curve was recorded. First, the platelet aggregator was preheated to 37° C., and 400 μL platelet suspension and stir bar were added to the turbidity tube, PPP was used as a reference, and traced the baseline under constant magnetic stirring at 37° C. After the baseline was stable, with the experiment plan, different concentrations of antagonist or other reagents were added to treat platelets for 2 minutes, and then inducer collagen was added to observe and record changes in the aggregation curve.
# The platelet aggregation rate of the solvent control group was set to be 100%. The inhibitory effects of the compounds on normal human platelet aggregation induced by collagen at different concentrations were as follows: […]
# [4] = 10 μM ADP, concentration 0.1 μM
# [5] = Homo sapiens, Platelet, 10 μM ADP, read-out: Aggregation inhibition rate %
# [6] = Homo sapiens, Platelet, 10 μM ADP, concentration 3 μM, read-out: Aggregation inhibition rate %
# [7] = Homo sapiens, Platelet, column 1
# [8] = Homo sapiens, Platelet, column 2
# [9] = Homo sapiens, Platelet, column 3
# [10] = Homo sapiens, Platelet, 0.5 U/ml thrombin, read-out: Aggregation inhibition rate %
# [11] = Homo sapiens, Platelet, 0.5 U/ml thrombin, concentration 0.01 μM, read-out: Aggregation inhibition rate %
# [12] = Homo sapiens, Platelet, 0.5 U/ml thrombin, concentration 20 μM, read-out: Aggregation inhibition rate %
# [13] = 1 μg/ml collagen, concentration 0.01 μM, 0.01 µM
# [14] = Homo sapiens, Platelet, 1 μg/ml collagen, concentration 3 μM, read-out: Aggregation inhibition rate %
# [15] = Homo sapiens, Platelet, column 1, read-out: IC50 of compound on collagen-induced platelet aggregation rate
# [16] = Homo sapiens, Platelet, column 2, read-out: IC50 of compound on collagen-induced platelet aggregation rate
# [17] = Homo sapiens, Platelet, column 3, read-out: IC50 of compound on collagen-induced platelet aggregation rate
smiles,measurement,setting,value
CCC(=O)NC(=N)Nc1ccc(C2=NNC(=O)CC2C)cc1 (stereo not drawn),IC50,platelets (rabbit blood),334 nM
"CC1CC(=O)NN=C1c1ccc(NC(=N)N)cc1 (stereo not drawn) [No. 1, 1-(4-(4-methyl-6-oxo-1,4,5,6-tetrahydropyridazin-3-yl)phenyl)guanidine]",IC50,platelets (rabbit blood),197 nM
same,Thrombus wet weight,"arterial thrombosis; 10 mg/kg intragastric, 4 hours before, blood flow 15 minutes, individual values",11.7 mg and 11.5 mg and 12.1 mg
same,weight of arterial thrombus in rats,arterial thrombosis; intragastric administration,significantly reduced
same,Aggregation inhibition rate %,"human platelets [1]; 10 μM ADP, concentration 0.03 μM, listed as Compound No.1",17.39%
same,Aggregation inhibition rate %,"human platelets [1]; 10 μM ADP, concentration 0.03 μM, listed as No.1 Compound",49.01%
same,Aggregation inhibition rate %,human platelets [1]; [4],37.68%
same,Aggregation inhibition rate %,"human platelets [1]; 10 μM ADP, concentration 0.3 μM, listed as Compound No.1",39.13%
same,Aggregation inhibition rate %,"human platelets [1]; 10 μM ADP, concentration 0.3 μM, listed as No.1 Compound",62.74%
same,Aggregation inhibition rate %,"human platelets [1]; 10 μM ADP, concentration 1 μM, listed as Compound No.1",42.02%
same,Aggregation inhibition rate %,"human platelets [1]; 10 μM ADP, concentration 1 μM, listed as No.1 Compound",66.67%
same,Aggregation inhibition rate %,"human platelets [1]; 10 μM ADP, concentration 3 μM",51.88%
same,inhibition at 0.005 µM,human platelets [1]; [5],2.99%
same,inhibition at 0.01 µM,human platelets [1]; [5],8.69%
same,inhibition at 0.1 µM,"human platelets [1]; Homo sapiens, Platelet, 10 μM ADP, concentration 0.1 μM, read-out: Aggregation inhibition rate %",43.1%
same,inhibition at 3 µM,human platelets [1]; [6],71.6%
same,inhibition at 5 µM,human platelets [1]; [5],81.4%
same,inhibition at 10 µM,human platelets [1]; [5],95.1%
same,IC50,human platelets [1]; [7],97 nM
same,IC50,human platelets [1]; [8],1080 nM
same,IC50,human platelets [1]; [9],154 nM
same,Aggregation inhibition rate %,"human platelets [2]; 0.5 U/ml thrombin, concentration 0.01 μM, 0.01 µM",2.81%
same,Aggregation inhibition rate %,"human platelets [2]; 0.5 U/ml thrombin, concentration 0.1 μM, 0.1 µM",46.03% and 40.98% and 65.21%
same,Aggregation inhibition rate %,"human platelets [2]; 0.5 U/ml thrombin, concentration 0.3 μM, 0.3 µM",80.95% and 89.85%
same,Aggregation inhibition rate %,"human platelets [2]; 0.5 U/ml thrombin, concentration 1 μM, 1 µM",95.83% and 97.33%
same,inhibition at 0.003 µM,human platelets [2]; [10],0%
same,inhibition at 0.01 µM,human platelets [2]; [11],3.08%
same,inhibition at 0.3 µM,"human platelets [2]; Homo sapiens, Platelet, 0.5 U/ml thrombin, concentration 0.3 μM, read-out: Aggregation inhibition rate %",71.4%
same,inhibition at 1 µM,"human platelets [2]; Homo sapiens, Platelet, 0.5 U/ml thrombin, concentration 1 μM, read-out: Aggregation inhibition rate %",85.7%
same,inhibition at 3 µM,"human platelets [2]; Homo sapiens, Platelet, 0.5 U/ml thrombin, concentration 3 μM, read-out: Aggregation inhibition rate %",100%
same,inhibition at 10 µM,"human platelets [2]; Homo sapiens, Platelet, 0.5 U/ml thrombin, concentration 10 μM, read-out: Aggregation inhibition rate %",100%
same,inhibition at 20 µM,human platelets [2]; [12],100%
same,IC50,human platelets [2]; [7],194 nM
same,IC50,human platelets [2]; [8],140 nM
same,IC50,human platelets [2]; [9],78 nM
same,inhibitory effect on platelet aggregation induced by collagen,human platelets [3]; 1 μg/ml collagen,significant inhibitory effect
same,Aggregation inhibition rate %,human platelets [3]; [13],8.96% and 10.94%
same,Aggregation inhibition rate %,"human platelets [3]; 1 μg/ml collagen, concentration 0.3 μM, 0.3 µM",79.10% and 44.78% and 54.69%
same,Aggregation inhibition rate %,"human platelets [3]; 1 μg/ml collagen, concentration 1 μM, 1 µM",80.59% and 95.31%
same,inhibition at 0.003 µM,"human platelets [3]; Homo sapiens, Platelet, 1 μg/ml collagen, concentration 0.003 μM, read-out: Aggregation inhibition rate %",5.97%
same,inhibition at 0.01 µM,"human platelets [3]; Homo sapiens, Platelet, 1 μg/ml collagen, concentration 0.01 μM, read-out: Aggregation inhibition rate %",10.4%
same,inhibition at 1 µM,"human platelets [3]; Homo sapiens, Platelet, 1 μg/ml collagen, concentration 1 μM, read-out: Aggregation inhibition rate %",95.9%
same,inhibition at 3 µM,human platelets [3]; [14],100%
same,IC50,"human platelets [3]; Homo sapiens, Platelet, 1 μg/ml collagen, read-out: IC50 on platelet aggregation induced by collagen",157 nM
same,IC50,human platelets [3]; [15],95 nM
same,IC50,human platelets [3]; [16],233 nM
same,IC50,human platelets [3]; [17],143 nM
"CCCSc1nc(N[C@@H]2C[C@H]2c2ccc(F)c(F)c2)c2nnn([C@@H]3C[C@H](OCCO)[C@@H](O)[C@H]3O)c2n1 [Ticagrelor, reference compound]",Aggregation inhibition rate %,"human platelets [1]; 10 μM ADP, concentration 0.03 μM",13.69%
same,Aggregation inhibition rate %,human platelets [1]; [4],15.06%
same,Aggregation inhibition rate %,"human platelets [1]; 10 μM ADP, concentration 0.3 μM",20.54%
same,Aggregation inhibition rate %,"human platelets [1]; 10 μM ADP, concentration 1 μM",57.53%
same,Aggregation inhibition rate %,"human platelets [1]; 10 μM ADP, concentration 3 μM",86.30%
same,inhibition at 0.005 µM,human platelets [1]; [5],0%
same,inhibition at 0.01 µM,human platelets [1]; [5],4.11%
same,inhibition at 3 µM,human platelets [1]; [6],100%
same,inhibition at 5 µM,human platelets [1]; [5],100%
same,inhibition at 10 µM,human platelets [1]; [5],100%
same,IC50,human platelets [1]; [7],72 nM
same,IC50,human platelets [1]; [8],963 nM
same,IC50,human platelets [1]; [9],261 nM
same,Aggregation inhibition rate %,"human platelets [2]; 0.5 U/ml thrombin, concentration 3 μM, 3 µM",69.84% and 49.33% and 92.53%
same,Aggregation inhibition rate %,"human platelets [2]; 0.5 U/ml thrombin, concentration 10 μM, 10 µM",80.95% and 55.41%
same,Aggregation inhibition rate %,"human platelets [2]; 0.5 U/ml thrombin, concentration 20 μM, 20 µM",81.33%
same,inhibition at 0.003 µM,human platelets [2]; [10],0%
same,inhibition at 0.01 µM,human platelets [2]; [11],0%
same,inhibition at 20 µM,human platelets [2]; [12],95.2%
same,IC50,human platelets [2]; [7],851 nM
same,IC50,human platelets [2]; [8],4020 nM
same,IC50,human platelets [2]; [9],161 nM
same,Aggregation inhibition rate %,"human platelets [3]; 1 μg/ml collagen, concentration 0.003 μM, 0.003 µM",4.23% and 1.45%
same,Aggregation inhibition rate %,human platelets [3]; [13],8.69% and 2.98% and 9.86%
same,Aggregation inhibition rate %,"human platelets [3]; 1 μg/ml collagen, concentration 0.03 μM, 0.03 µM",8.95% and 15.49%
same,Aggregation inhibition rate %,"human platelets [3]; 1 μg/ml collagen, concentration 3 μM, 3 µM",66.17% and 64.78%
same,Aggregation inhibition rate %,"human platelets [3]; 1 μg/ml collagen, concentration 10 μM, 10 µM",75% and 92.95%
same,inhibition at 0.03 µM,"human platelets [3]; Homo sapiens, Platelet, 1 μg/ml collagen, concentration 0.03 μM, read-out: Aggregation inhibition rate %",13%
same,inhibition at 3 µM,human platelets [3]; [14],75.4%
same,inhibition at 10 µM,"human platelets [3]; Homo sapiens, Platelet, 1 μg/ml collagen, concentration 10 μM, read-out: Aggregation inhibition rate %",82.6%
same,inhibition at 20 µM,"human platelets [3]; Homo sapiens, Platelet, 1 μg/ml collagen, concentration 20 μM, read-out: Aggregation inhibition rate %",100%
same,IC50,human platelets [3]; [15],888 nM
same,IC50,human platelets [3]; [16],532 nM
same,IC50,human platelets [3]; [17],908 nM
